Among the data in PubChem BioAssay (NCI) are TGI values, retold here.

Common to all, as to assay: inhibition of tumour cell growth, NCI panel, 48 h
Test [1] relates to IGROV1 ovarian.
Test [2] relates to UACC-62 melanoma.
Test [3] concerns K-562 leukemia.
Test [4] concerns PC-3 prostate.
Test [5] deals with CCRF-CEM leukemia.
In test [6] the test system is SF-268 CNS.
Test [7] deals with RXF 393 renal.
Test [8] deals with HS 578T breast.
Test [9] concerns DU-145 prostate.
The subject of test [10] is SF-295 CNS.
The subject of test [11] is MDA-MB-231 breast.
Test [12] deals with NCI-H522 lung.
Test [13] concerns NCI-H460 lung.
Test [14] deals with SN12C renal.
Test [15] concerns MDA-MB-435.
Test [16] concerns SK-MEL-5 melanoma.
In test [17] the test system is SW-620 colon.
The test system of test [18] is SR leukemia.
Test [19] relates to OVCAR-3 ovarian.

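Growth conditions: 96-well plates. Treatment: test compound, 48 hours, 5 concentrations. Analysis: linear interpolation between bracketing concentrations; unreached endpoints set to highest concentration. TGI: concentration producing complete growth inhibition.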 Where only a bound is given, the exact number is not on record here.

Regarding `Cc1cn(C2CC(N=[N+]=[N-])C(COP(=O)(O)OCC3OC(n4cc(F)c(=O)[nH]c4=O)CC3O)O2)c(=O)[nH]c1=O` (stereo not drawn), the TGI in test [1] is 9.57 µM; in [2] it was more than 100 µM; in [3] it was more than 65.7 µM; in test [4], more than 100 µM; in [5], more than 100 µM; in [6], more than 100 µM. In addition, the TGI in [7], in [8], in [9], in test [10], in [11] and in test [12] was more than 100 µM throughout. Moreover, the TGI in [13], in [14], in [15], in test [16], in test [17] and in test [18] was more than 100 µM in each case. The TGI in test [19] was more than 100 µM.

As to `COC(=O)C(=O)Nc1cc2c3c(c1)Oc1cccc4c1C3(C)c1c(cccc1O2)O4`, the TGI in test [1] is more than 100 µM; in test [2] it was more than 100 µM; in test [3] it was more than 100 µM; in test [4], more than 100 µM; in test [5], 8.7 µM; in test [6] it was more than 100 µM. In addition, the TGI in [7] was 56.9 µM; in [8], more than 100 µM; in [9] it was more than 66.3 µM; in test [10], more than 100 µM; in test [11] it was more than 100 µM; in test [12], more than 100 µM. Further, the TGI in test [13], in [14], in test [15], in [16], in [17] and in [18] was more than 100 µM each time. Moreover, the TGI in [19] is more than 100 µM.

For the molecule `CC(C)(O)c1cc2c(cc1C(C)(C)O)-c1ccccc1-2`, the TGI in test [1], in test [2], in [3], in [4], in test [5] and in test [6] was more than 100 µM throughout. The TGI in test [7], in [8], in test [9], in [10], in [11] and in test [12] was more than 100 µM throughout. The TGI in test [13], in test [14], in test [15], in [16], in test [17] and in [18] was more than 100 µM each time. Moreover, the TGI in test [19] is more than 100 µM.

Consider `O=[N+]([O-])/C(Cl)=C(/C(Cl)=C(Cl)Cl)N1CCOCC1`, for which the TGI in test [1] was 3.88 µM; in test [2], 5.62 µM; in test [3], 12.8 µM; in test [4] it was 19.3 µM; in test [5], 7.23 µM; in test [6], 24.4 µM. Further, the TGI was 7.93 µM in test [7]; 14.9 µM in test [8]; 26.9 µM in test [9]; 25.8 µM in [10]; 8.89 µM in test [11]; 4.73 µM in test [12]. Besides, the TGI in test [13] was found to be 18.4 µM; in test [14], 20 µM; in [15], 7.64 µM; in test [16] it was 3.48 µM; in test [17], 11.7 µM; in test [18], 6.42 µM. The molecule also had a TGI in test [19] of 4.86 µM.

Turning to `O=c1[nH][nH]c(=O)c2c1ccc1oc3ccccc3c12`, the TGI in test [1], in [2], in test [3], in [4], in test [5] and in [6] was more than 100 µM throughout. Besides, the TGI in [7], in test [8], in test [9], in [10], in test [11] and in test [12] was more than 100 µM in each case. Moreover, the TGI in test [13], in test [14], in [15], in [16], in test [17] and in test [18] was more than 100 µM each time. This molecule also came in with a TGI in test [19] of more than 100 µM.

As for `CC(C)(C)OC(=O)CCCCCNC(=O)CCCCCNC(=O)CCC(CN(CC(=O)OCc1ccccc1)CC(=O)OCc1ccccc1)N(CC(=O)OCc1ccccc1)CC(=O)OCc1ccccc1` (stereo not drawn), the TGI in test [1], in [2], in test [3], in test [4], in test [5] and in [6] was more than 100 µM in each case. In addition, the TGI in [7], in [8], in [9], in test [10], in test [11] and in test [12] was more than 100 µM each time. Further, the TGI in test [13], in [14], in test [15], in test [16], in test [17] and in test [18] was more than 100 µM each time. This molecule also came in with a TGI in [19] of more than 100 µM.

For the molecule `O=C1OC([C@H](O)c2cccnc2)c2ccccc21` (stereo partly drawn), the TGI in [1], in test [2], in test [3], in test [4], in test [5] and in test [6] was more than 10 µM in each case. In addition, the TGI in [7], in [8], in [9], in [10], in [11] and in [12] was more than 10 µM throughout. Further, the TGI in test [13], in [14], in [15], in [16], in test [17] and in [18] was more than 10 µM in each case. The molecule also displayed a TGI in [19] of more than 10 µM.
